Patent publication US12648560B2, “Mosquito repellent composition and method for the preparation thereof” (priority 2019, dated 2026)

Key:
acetylcholinesterase = conditions: enzyme of insects as also of mammals; cited from earlier work
Aedes albopictus = assay: Behavioural (blood-feeding) repellency test on feeders covered with pig intestinal skin; assay type: in vivo
Method: Testing was performed as to the activity of the compositions obtained by the method according to the invention on the behaviour of the tiger mosquito, Aedes albopictus.
The behavioural tests were carried out at the Montpellier Vectopôle, which is a research centre that collaborates with the WHO for the evaluation of insecticides in public health.
The tests were carried out on mosquitoes aged 5 to 9 days old after their evolution from pupae to adult.
In preparation for the experiment, the mosquitoes were […] on the day prior thereto, in order to promote their appetite for the test to occur the subsequent day.
Each cup contains a damp cotton. The female mosquitoes were removed from the cage making use of a tube that enables aspiration thereof. They were then introduced into each experiment cup (10 mosquitoes per cup).
The tests were carried out on plexiglass racks serving as supports for glass bells known as feeders. The latter are connected to each other by plastic pipes wherein water circulates at 37° C.
Pig intestinal skin was used to mimic human skin in the experiment. The pieces of intestinal skin are positioned and stretched over the feeders.
The repellent is diluted in ethyl alcohol (aka ethanol or EtOH) and is deposited on the skin using a micropipette and then spread over the entire surface. […] If the composition tested is a mixture of at least two compounds, one of which is PMD, the said composition is diluted in ethanol at a concentration of 0.02036 mg/μL, or else is diluted in ethanol until 0.02036 mg/μL of PMD is obtained.
The feeders are turned over, then 300 μL of sheep blood are placed in each feeder. The cups are inserted under each feeder.
Polystyrene plates are inserted between the lines of repellent so as to avoid possible interactions of odours. The duration of the experiment is one hour. The cups are then placed in a freezer at −20° C. for a period of 40 minutes. After freezing, the contents of one cup are placed between two sheets of paper, with the entirety thereof then being crushed with a plexiglass plate. The counting of the blood-fed (engorged) mosquitoes is done based on the number of red dots on the sheet of paper. The results are expressed as a percentage of repellency (100%-X % of blood-feeding). The percentage of blood-feeding is defined in relation to the EtOH negative control. DEET and commercial cis/trans PMD 75/25 at 200 mg/m^2 were used as positive controls.
The results obtained were statistically analysed using R software (R Development Core Team. R: A language and environment for statistical computing. R Foundation for Statistical Computing, Vienna, Austria. ISBN 3-900051-07-0, 2013) and represent the mean of 16 replicates. The percentage repellency values are presented as the mean±standard deviation. The R software also makes it possible to compare two percentage repellency values by means of calculating the quantity p. This quantity p is a probability.

SMILES: CCN(CC)C(=O)c1cccc(C)c1 [DEET, N,N diethyl-meta-toluamide]
- acetylcholinesterase inhibition (acetylcholinesterase): inhibits
- % Repellency (Aedes albopictus; Table 2 series, 110 mg/m^2 in EtOH, 1 h, mean ± SD of 16 replicates): 76 ± 9%
- % Repellency (Aedes albopictus; Table 3 series, 110 mg/m^2 in EtOH, 1 h, mean ± SD): 56 ± 8%
- % Repellency (Aedes albopictus; Table 4 series, 110 mg/m^2 in EtOH, mean ± SD): 39 ± 7%
- % Repellency (Aedes albopictus; Table 5 series, 110 mg/m^2 in EtOH, mean ± SD): 49 ± 17%
- % Repellency (Aedes albopictus; Table 6 series, 110 mg/m^2 in EtOH, mean ± SD): 73 ± 2%
- % Repellency (Aedes albopictus; Table 7 series, 110 mg/m^2 in EtOH, mean ± SD): 43 ± 13%

SMILES: CC1CCC(C(C)(C)O)C(O)C1 (mixture of isomers) [Commercial cis/trans PMD 75/25, p-menthane-3,8-diol]
- % Repellency (Aedes albopictus; Table 2 series, 200 mg/m^2 in EtOH, 1 h, mean ± SD): 51 ± 11%
- % Repellency (Aedes albopictus; Table 3 series, 200 mg/m^2 in EtOH, 1 h, mean ± SD): 55 ± 1%
- % Repellency (Aedes albopictus; Table 4 series, PMD at 200 mg/m^2 in EtOH, mean ± SD): 31 ± 7%
- % Repellency (Aedes albopictus; Table 5 series, PMD at 200 mg/m^2 in EtOH, mean ± SD): 36 ± 1%
- % Repellency (Aedes albopictus; Table 6 series, PMD at 200 mg/m^2 in EtOH, mean ± SD): 48 ± 15%
- % Repellency (Aedes albopictus; Table 7 series, PMD at 200 mg/m^2 in EtOH, mean ± SD): 52 ± 12%
- ED 50 expressed as concentration (Aedes albopictus; concentration in EtOH tantamount to 200 mg/m^2): 20.36 mg/mL
- ED 50 (median effective dose) (Aedes albopictus; repellency, dose on skin surface): 200 mg/m^2
